{"source": "patent US12662469B2", "about": "(SIRONAX LTD, priority 2018, dated 2026)"}
{"system": "Cell Necrosis", "experiment": "Cell necrosis assay / cell viability assay (necrosis inhibitor activity)", "format": "cell-based", "conditions": "necrosis inhibitor activity; EC data for 14-191 extrapolated; read-out: EC50", "units": {"EC50": "nM"}}
{"smiles": "O=C(N1CC(Cc2ccc(F)cc2Cl)C1)N1N=CCC1c1ccccc1", "note": "(centres unmarked) [Compound 52, (3-(2-chloro-4-fluorobenzyl)azetidin-1-yl)(5-phenyl-4,5-dihydro-1H-pyrazol-1-yl)methanone]", "EC50": "1 to 1000"}
{"smiles": "O=C(N1CC(Oc2ccc3nc[nH]c3c2)C1)N1N=CCC1c1cc(F)cc(F)c1", "note": "(centres unmarked) [Compound 178]", "EC50": "1 to 1000"}
{"smiles": "O=C(N1CC(Oc2cccnc2)C1)N1N=CCC1c1ccccc1", "note": "(centres unmarked) [Compound 74, (5-phenyl-4,5-dihydro-1H-pyrazol-1-yl)(3-(pyridin-3-yloxy)azetidin-1-yl)methanone]", "EC50": "1 to 1000"}
{"smiles": "Cc1ccccc1CC1CN(C(=O)N2N=CCC2c2ccccc2)C1", "note": "(centres unmarked) [Compound 37, (3-(2-methylbenzyl)azetidin-1-yl)(5-phenyl-4,5-dihydro-1H-pyrazol-1-yl) methanone]", "EC50": "1 to 1000"}
{"smiles": "O=C(C1CC1)N1CCN(C(=O)N2N=CCC2c2ccccc2)CC1", "note": "(centres unmarked) [Compound 93, (4-(cyclopropanecarbonyl)piperazin-1-yl)(5-phenyl-4,5-dihydro-1H-pyrazol-1-yl)methanone]", "EC50": "1000 to 10000"}
{"smiles": "O=C(NC1CCC(c2ccccc2)C1)N1N=CCC1c1ccccc1", "note": "(centres unmarked) [Compound 21, 5-phenyl-N-(3-phenylcyclopentyl)-4,5-dihydro-1H-pyrazole-1-carboxamide]", "EC50": "1 to 1000"}
{"smiles": "O=C(N1CC/C(=C/c2ccccc2)C1)N1N=CCC1c1ccccc1", "note": "(centres unmarked) [Compound 58, (Z)-(3-benzylidenepyrrolidin-1-yl)(5-phenyl-4,5-dihydro-1H-pyrazol-1-yl)methanone]", "EC50": "1 to 1000"}
{"smiles": "O=C(N1CC(Cc2ccc3nc[nH]c3c2)C1)N1N=CCC1c1cc(F)cc(F)c1", "note": "(centres unmarked) [Compound 191]", "EC50": "1 to 1000"}
{"smiles": "O=C1NCc2cc(OC3CN(C(=O)N4N=CCC4c4cc(F)cc(F)c4)C3)ccc21", "note": "(centres unmarked) [Compound 180]", "EC50": "1 to 1000"}
{"smiles": "O=C1NCc2c1csc2OC1CN(C(=O)N2N=CCC2c2cc(F)cc(F)c2)C1", "note": "(centres unmarked) [Compound 168]", "EC50": "1 to 1000"}
{"smiles": "NC(=O)c1ccc(OC2CN(C(=O)N3N=CCC3c3cc(F)cc(F)c3)C2)cc1", "note": "(centres unmarked) [Compound 130, 4-((1-(5-(3,5-difluorophenyl)-4,5-dihydro-1H-pyrazole-1-carbonyl)azetidin-3-yl)oxy)benzamide]", "EC50": "1 to 1000"}
{"smiles": "O=C(N1CC(Cc2ccccc2)C1)N1N=CCC1c1ccccc1", "note": "(centres unmarked) [Compound 16, (3-benzylazetidin-1-yl)(5-phenyl-4,5-dihydro-1H-pyrazol-1-yl)methanone]", "EC50": "1 to 1000"}
{"smiles": "O=C(N1CC(Oc2ccc(F)nc2)C1)N1N=CCC1c1ccccc1", "note": "(centres unmarked) [Compound 73, (3-((6-fluoropyridin-3-yl)oxy)azetidin-1-yl)(5-phenyl-4,5-dihydro-1H-pyrazol-1-yl)methanone]", "EC50": "1 to 1000"}
{"smiles": "C[C@@H]1CN(c2ncc(F)cn2)C[C@H](C)N1C(=O)N1OCC[C@H]1c1ccccc1", "note": "[Compound 110, ((2R,6S)-4-(5-fluoropyrimidin-2-yl)-2,6-dimethylpiperazin-1-yl)((S)-3-phenylisoxazolidin-2-yl)methanone]", "EC50": "1 to 1000"}
{"smiles": "O=C(N[C@H]1CC[C@H](Oc2ccccc2)C1)N1N=CCC1c1ccccc1", "note": "(stereo partly drawn) [Compound 25, N-((1S,3S)-3-phenoxycyclopentyl)-5-phenyl-4,5-dihydro-1H-pyrazole-1-carboxamide]", "EC50": "1000 to 10000"}
{"smiles": "C[C@@H]1CN(c2ncc(F)cn2)C[C@H](C)N1C(=O)N1N=CCC1c1cc(F)cc(F)c1", "note": "(stereo partly drawn) [Compound 30, (5-(3,5-difluorophenyl)-4,5-dihydro-1H-pyrazol-1-yl)((2R,6S)-4-(5-fluoropyrimidin-2-yl)-2,6-dimethylpiperazin-1-yl)methanone]", "EC50": "1 to 1000"}
{"smiles": "O=C(N1CC(Oc2ccc(F)nc2F)C1)N1N=CC[C@H]1c1cc(F)cc(F)c1", "note": "[Compound 145]", "EC50": "1 to 1000"}
{"smiles": "O=C(N1CC(Oc2ccc(-c3ncc[nH]3)cc2)C1)N1N=CCC1c1cc(F)cc(F)c1", "note": "(centres unmarked) [Compound 166]", "EC50": "1 to 1000"}
{"system": "Cell Necrosis", "experiment": "Cell necrosis assay / cell viability assay (necrosis inhibitor activity)", "format": "cell-based", "conditions": "necrosis inhibitor activity; compounds outside 14-191; read-out: EC50", "units": {"EC50": "nM"}}
{"smiles": "O=C(c1nc(OC2CN(C(=O)N3N=CC[C@H]3c3cc(F)cc(F)c3)C2)sc1Cl)N1CCC1", "note": "[Compound 275]", "EC50": "1 to 1000"}
{"smiles": "O=C(N1CC(=Cc2ccc(Cl)nc2Cl)C1)N1N=CC[C@H]1c1cc(F)cc(F)c1", "note": "[Compound 316, (S)-(3-((2,6-dichloropyridin-3-yl)methylene)azetidin-1-yl)(5-(3,5-difluorophenyl)-4,5-dihydro-1H-pyrazol-1-yl)methanone]", "EC50": "1 to 1000"}
{"smiles": "N#Cc1cc(O[C@@H]2CCN(C(=O)N3N=CC[C@H]3c3cc(F)cc(F)c3)C2)ccn1", "note": "[Compound 340, 4-(((R)-1-((S)-5-(3,5-difluorophenyl)-4,5-dihydro-1H-pyrazole-1-carbonyl)pyrrolidin-3-yl)oxy)picolinonitrile]", "EC50": "1 to 1000"}
{"smiles": "O=C(N1CC(Oc2ccc(OCc3ccccc3)cc2)C1)N1N=CC[C@H]1c1cc(F)cc(F)c1", "note": "[Compound 214, (S)-(3-(4-(benzyloxy)phenoxy)zetidine-1-yl)(5-(3,5-difluorophenyl)-4,5-dihydro-1H-pyrazol-1-yl)methanone]", "EC50": "1 to 1000"}
{"smiles": "Nc1ccc(F)c(OC2CN(C(=O)N3N=CC[C@H]3c3cc(F)cc(F)c3)C2)n1", "note": "[Compound 251, (S)-(3-((6-amino-3-fluoropyridin-2-yl)oxy)azetidin-1-yl)(5-(3,5-difluorophenyl)-4,5-dihydro-1H-pyrazol-1-yl)methanone]", "EC50": "1 to 1000"}
{"smiles": "O=C(N1CC(=Cc2ccc(F)cc2F)C1)N1N=CCC1c1cncc(F)c1", "note": "(centres unmarked) [Compound 308, (3-(2,4-difluorobenzylidene)azetidin-1-yl)(5-(5-fluoropyridin-3-yl)-4,5-dihydro-1H-pyrazol-1-yl)methanone]", "EC50": "1 to 1000"}
{"smiles": "O=C1COc2ccc(OC3CN(C(=O)N4N=CC[C@H]4c4ccccc4)C3)cc2N1", "note": "[Compound 199, (S)-6-((1-(5-phenyl-4,5-dihydro-1H-pyrazole-1-carbonyl)azetidin-3-yl)oxy)-2H-benzo[b][1,4]oxazin-3(4H)-one]", "EC50": "1 to 1000"}
{"smiles": "CNC(=O)c1ccc(OC2CN(C(=O)N3N=CC[C@H]3c3cc(F)cc(F)c3)C2)cc1", "note": "[Compound 218, (S)-4-((1-(5-(3,5-difluorophenyl)-4,5-dihydro-1H-pyrazole-1-carbonyl)azetidin-3-yl)oxy)-N-methylbenzamide]", "EC50": "1 to 1000"}
{"smiles": "O=C(N1CC(Oc2nc(Cl)ncc2F)C1)N1N=CC[C@H]1c1cc(F)cc(F)c1", "note": "[Compound 267]", "EC50": "1 to 1000"}
{"smiles": "O=C1Cc2ccc(OC3CN(C(=O)N4N=CC[C@H]4c4cc(F)cc(F)c4)C3)cc2N1", "note": "[Compound 209, (S)-6-((1-(5-(3,5-difluorophenyl)-4,5-dihydro-1H-pyrazole-1-carbonyl)azetidin-3-yl)oxy)indolin-2-one]", "EC50": "1 to 1000"}
{"smiles": "O=C(N1CC(=Cc2cc3[nH]nc(F)c3cc2F)C1)N1N=CC[C@H]1c1cc(F)cc(F)c1", "note": "[Compound 301, (S)-(3-((3,5-difluoro-1H-indazol-6-yl)methylene)azetidin-1-yl)(5-(3,5-difluorophenyl)-4,5-dihydro-1H-pyrazol-1-yl)methanone]", "EC50": "1 to 1000"}
{"smiles": "NC(=O)CCNc1ncc(F)c(OC2CN(C(=O)N3N=CC[C@H]3c3cc(F)cc(F)c3)C2)n1", "note": "[Compound 270, (S)-3-((4-((1-(5-(3,5-difluorophenyl)-4,5-dihydro-1H-pyrazole-1-carbonyl)azetidin-3-yl)oxy)-5-fluoropyrimidin-2-yl)amino)propanamide]", "EC50": "1 to 1000"}
{"smiles": "O=C(N1CC(=Cc2cnc3c(F)n[nH]c3c2)C1)N1N=CC[C@H]1c1cc(F)cc(F)c1", "note": "[Compound 327]", "EC50": "1 to 1000"}
{"smiles": "O=C(N1CC(Nc2ccc(F)cc2F)C1)N1N=CCC1c1cc(F)cc(F)c1", "note": "(centres unmarked) [Compound 255, (5-(3,5-difluorophenyl)-4,5-dihydro-1H-pyrazol-1-yl)(3-((2,4-difluorophenyl)amino)azetidin-1-yl)methanone]", "EC50": "1 to 1000"}
{"smiles": "CN1C(=O)C(CCO)Oc2cc(F)c(OC3CN(C(=O)N4N=CC[C@H]4c4cc(F)cc(F)c4)C3)cc21", "note": "(stereo partly drawn) [Compound 248, 6-((1-((S)-5-(3,5-difluorophenyl)-4,5-dihydro-1H-pyrazole-1-carbonyl)azetidin-3-yl)oxy)-7-fluoro-2-(2-hydroxyethyl)-4-methyl-2H-benzo[b][1,4]oxazin-3(4H)-one]", "EC50": "1 to 1000"}
{"smiles": "O=C(N1CC(=Cc2ccc3oc(=O)[nH]c3c2)C1)N1N=CC[C@H]1c1cc(F)cc(F)c1", "note": "[Compound 311, (S)-5-((1(5-(3,5-difluorophenyl)-4,5-dihydro-1H-pyrazole-1-carbonyl)azetidin-3-ylidene)methyl)benzo[d]oxazol-2(3H)-one]", "EC50": "1 to 1000"}
{"smiles": "NC(=O)c1cc(OC2CN(C(=O)N3N=CC[C@H]3c3cc(F)cc(F)c3)C2)ccc1F", "note": "[Compound 220]", "EC50": "1 to 1000"}
{"smiles": "NCC#Cc1ccnc(N2CCN(C(=O)N3N=CCC3c3cc(F)cc(F)c3)CC2)n1", "note": "(centres unmarked) [Compound 382, (4-(4-(3-aminoprop-1-yn-1-yl)pyrimidin-2-yl)piperazin-1-yl)(5-(3,5-difluorophenyl)-4,5-dihydro-1H-pyrazol-1-yl)methanone frifluoroacetate]", "EC50": "1 to 1000"}
{"smiles": "O=C(N1CC(=Cc2cnc3cn[nH]c3c2)C1)N1N=CC[C@H]1c1cc(F)cc(F)c1", "note": "[Compound 315, (S)-(3-((1H-pyrazolo[4,3-b]pyridin-6-yl)methylene)azetidin-1-yl)(5-(3,5-difluorophenyl)-4,5-dihydro-1H-pyrazol-1-yl)methanone]", "EC50": "1 to 1000"}
{"smiles": "O=C(N1CC(Oc2ccc3occc3c2)C1)N1N=CCC1c1cc(F)cc(F)c1", "note": "(centres unmarked) [Compound 216, (3-(benzofuran-5-yloxy)115zetidine-1-yl)(5-(3,5-difluorophenyl)-4,5-dihydro-1H-pyrazol-1-yl)methanone]", "EC50": "1 to 1000"}
{"smiles": "O=C(N1CC(Oc2nc(NCCO)ncc2F)C1)N1N=CC[C@H]1c1cc(F)cc(F)c1", "note": "[Compound 266, (S)-(5-(3,5-difluorophenyl)-4,5-dihydro-H-pyrazol-1-yl)(3-((5-fluoro-2-((2-hydroxyethyl)amino)pyrimidin-4-yl)oxy)azetidin-1-yl)methanone]", "EC50": "1 to 1000"}
{"smiles": "CC(=O)Nc1cccc(OC2CN(C(=O)N3N=CCC3c3cc(F)cc(F)c3)C2)c1", "note": "(centres unmarked) [Compound 228, N-(3-((1-(5-(3,5-difluorophenyl)-4,5-dihydro-1H-pyrazole-1-carbonyl)azetidin-3-yl)oxy)phenyl)acetamide]", "EC50": "1 to 1000"}
{"smiles": "N#Cc1ccc(F)c(OC2CN(C(=O)N3N=CC[C@H]3c3cc(F)cc(F)c3)C2)c1", "note": "[Compound 235, (S)-3-((1-(5-(3,5-difluorophenyl)-4,5-dihydro-1H-pyrazole-1-carbonyl)azetidin-3-yl)oxy)-4-fluorobenzonitrile]", "EC50": "1 to 1000"}
